Results reported in ChEMBL document CHEMBL1125348, “The first mechanism-based inactivators for angiotensin-converting enzyme” (J Med Chem, 1992).

Experiments:
Type in all cases: protein assay
[1] = test system: N#CCC(=O)N[C@@H](Cc1ccccc1)C(=O)N[C@@H](Cc1ccccc1)C(=O)O; test: Km for angiotensin I converting enzyme
[2] = biological target: T1, Angiotensin-converting enzyme (Homo sapiens, UniProt P12821+Q9BYF1); test: First order rate constant for angiotensin I converting enzyme
[3] = biological target: T1, Angiotensin-converting enzyme; test: kinact for angiotensin I converting enzyme
[4] = biological target: T1, Angiotensin-converting enzyme; test: Inhibition of hydrolysis of N-[3-(2-furyl)acryloyll-Phe-Gly-Gly7 by angiotensin I converting enzyme

T1 sequence (P12821 whole entry, looked up): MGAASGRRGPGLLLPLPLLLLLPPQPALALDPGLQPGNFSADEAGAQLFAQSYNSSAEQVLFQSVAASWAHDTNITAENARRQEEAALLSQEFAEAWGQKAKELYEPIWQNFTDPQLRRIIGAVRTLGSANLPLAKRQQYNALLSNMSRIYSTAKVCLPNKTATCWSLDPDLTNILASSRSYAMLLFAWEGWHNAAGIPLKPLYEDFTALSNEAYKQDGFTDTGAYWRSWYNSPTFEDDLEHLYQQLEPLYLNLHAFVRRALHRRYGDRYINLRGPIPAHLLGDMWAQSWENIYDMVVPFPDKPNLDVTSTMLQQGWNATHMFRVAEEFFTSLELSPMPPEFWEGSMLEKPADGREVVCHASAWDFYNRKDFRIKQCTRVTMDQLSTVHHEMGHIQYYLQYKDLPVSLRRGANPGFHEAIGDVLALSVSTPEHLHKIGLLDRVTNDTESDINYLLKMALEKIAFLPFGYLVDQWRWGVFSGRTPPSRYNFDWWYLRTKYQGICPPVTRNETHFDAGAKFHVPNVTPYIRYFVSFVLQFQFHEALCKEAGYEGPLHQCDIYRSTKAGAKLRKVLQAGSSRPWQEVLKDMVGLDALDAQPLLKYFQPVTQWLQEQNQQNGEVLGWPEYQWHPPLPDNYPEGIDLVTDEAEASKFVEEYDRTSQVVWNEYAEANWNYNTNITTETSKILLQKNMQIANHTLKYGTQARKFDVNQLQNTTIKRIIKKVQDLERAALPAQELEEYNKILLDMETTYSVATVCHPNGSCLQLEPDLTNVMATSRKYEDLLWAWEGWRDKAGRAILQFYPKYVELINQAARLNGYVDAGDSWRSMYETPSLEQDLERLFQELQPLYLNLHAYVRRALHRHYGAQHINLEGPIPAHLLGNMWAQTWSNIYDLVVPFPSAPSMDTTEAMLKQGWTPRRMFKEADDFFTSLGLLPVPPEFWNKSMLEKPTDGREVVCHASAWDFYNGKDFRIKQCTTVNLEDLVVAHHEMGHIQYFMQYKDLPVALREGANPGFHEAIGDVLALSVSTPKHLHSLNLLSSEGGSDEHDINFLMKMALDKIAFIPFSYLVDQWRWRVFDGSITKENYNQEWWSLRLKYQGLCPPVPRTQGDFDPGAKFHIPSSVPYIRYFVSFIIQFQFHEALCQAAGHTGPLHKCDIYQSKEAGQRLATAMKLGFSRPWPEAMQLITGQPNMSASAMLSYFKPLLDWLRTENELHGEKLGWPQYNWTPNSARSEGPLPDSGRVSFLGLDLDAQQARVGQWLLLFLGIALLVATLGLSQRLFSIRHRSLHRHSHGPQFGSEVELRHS
T1 sequence (Q9BYF1 whole entry, looked up): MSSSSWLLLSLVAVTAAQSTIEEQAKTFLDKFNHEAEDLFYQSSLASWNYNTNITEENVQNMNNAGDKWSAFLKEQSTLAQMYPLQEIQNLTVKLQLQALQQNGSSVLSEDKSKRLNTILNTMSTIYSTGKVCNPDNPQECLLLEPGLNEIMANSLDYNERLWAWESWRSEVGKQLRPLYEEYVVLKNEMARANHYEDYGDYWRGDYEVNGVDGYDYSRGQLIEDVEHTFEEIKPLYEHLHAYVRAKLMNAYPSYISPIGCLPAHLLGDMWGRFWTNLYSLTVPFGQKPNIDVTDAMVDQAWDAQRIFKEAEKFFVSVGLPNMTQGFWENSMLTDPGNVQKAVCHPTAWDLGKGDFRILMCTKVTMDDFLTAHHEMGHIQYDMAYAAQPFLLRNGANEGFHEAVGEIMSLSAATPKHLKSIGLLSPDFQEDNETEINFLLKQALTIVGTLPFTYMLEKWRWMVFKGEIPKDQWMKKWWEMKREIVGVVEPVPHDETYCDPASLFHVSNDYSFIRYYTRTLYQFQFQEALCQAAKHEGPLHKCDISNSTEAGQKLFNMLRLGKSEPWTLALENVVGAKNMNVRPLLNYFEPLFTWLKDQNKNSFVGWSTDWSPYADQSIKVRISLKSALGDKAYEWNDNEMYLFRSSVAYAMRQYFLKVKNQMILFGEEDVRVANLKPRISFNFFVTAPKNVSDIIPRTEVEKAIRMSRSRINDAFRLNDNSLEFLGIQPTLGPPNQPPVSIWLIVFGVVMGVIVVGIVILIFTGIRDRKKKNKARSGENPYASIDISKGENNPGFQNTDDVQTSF
Angiotensin-converting enzyme (Homo sapiens), sequence (Q9BYF1 whole entry, looked up): as above
Angiotensin-converting enzyme (Homo sapiens), sequence (P12821 whole entry, looked up): as the sequence (P12821 whole entry, looked up) above

Compound | Km [1] [mM] | k obs [2] [s⁻¹] | K inact [3] [min⁻¹] | Ki [4] [µM]
Angiotensin-converting enzyme (Homo sapiens) (from UniProt P12821+Q9BYF1) | 10.5 | – | – | –
C[C@H](NC(=O)CC#N)C(=O)N[C@@H](Cc1ccccc1)C(=O)O | – | 0.000251 | – | –
N#CCC(=O)N[C@@H](Cc1ccccc1)C(=O)N[C@@H](Cc1ccccc1)C(=O)O | – | 0.000835 | 0.08 | 65
CC(C)C[C@H](NC(=O)[C@H](C)NC(=O)CC#N)C(=O)O | – | 0.000501 | – | –
